Measured values as given in ChEMBL document CHEMBL1154989, “Towards the second generation of Boceprevir: Dithianes as an alternative P2 substituent for 2,2-dimethyl cycloproyl proline in HCV NS3 protease inhibitors” (Bioorg Med Chem Lett, 2010).
Activity calls are given as the source filed them. No cut-off for these calls is given here.

What was measured:
[1] = Inhibition of HCV NS3/4A serine protease by continuous spectrophotometric assay; parameters: species or system Hepacivirus hominis
[2] = Selectivity for HCV NS3 serine protease over human neutrophil elastase
[3] = AUC in rat at 10 mg/kg, po; format: ADME, organism-based; parameters: dose 10 mg/kg, route oral; conditions: plasma
Hepatitis C virus = experiment: Antiviral activity against HCV replicon expressing NS3-5 infected in HuH7 cells assessed as inhibition of viral replication after 3 days by ELISA; format: functional, organism-based, Hepacivirus hominis, Huh-7

SMILES | Ki [1] | Ratio [2] | AUC [3] | EC90 (Hepatitis C virus; Hepatitis C virus, Huh-7, 72 h, read-out: EC90) | EC90 (Hepatitis C virus; huh-7)
CC(C)(C)NC(=O)N[C@H](C(=O)N1CC2(C[C@H]1C(=O)NC(CC1CCC1)C(=O)C(N)=O)SCCS2)C(C)(C)C (stereo not given in full) | 600 nM | – | – | – | –
C=CCNC(=O)C(=O)C(CC1CC1)NC(=O)[C@@H]1CC2(CN1C(=O)[C@@H](NC(=O)N[C@@H](C(=O)OC1CC1)C(C)C)C(C)(C)C)SCCS2 (stereo not given in full) | 84 nM | 40 | – | – | –
C=CCNC(=O)C(=O)C(CCC)NC(=O)[C@@H]1CC2(CN1C(=O)[C@@H](NC(=O)N[C@@H](CN1C(=O)CC(C)(C)CC1=O)C(C)(C)C)C(C)(C)C)SCCS2 (stereo not given in full) | 5 nM | 630 | 0.06 µM·h | – | –
C=CCNC(=O)C(=O)C(CC1CC1)NC(=O)[C@@H]1CC2(CN1C(=O)[C@@H](NC(=O)N[C@@H](CN1C(=O)CC(C)(C)CC1=O)C(C)(C)C)C(C)(C)C)SCCS2 (stereo not given in full) | 21 nM | 290 | – | – | –
C=CCNC(=O)C(=O)C(CC1CC1)NC(=O)[C@@H]1CC2(CN1C(=O)[C@@H](NC(=O)N[C@@H](CN1C(=O)CC(C)(C)CC1=O)C(C)(C)C)C1(C)CCCCC1)SCCS2 (stereo not given in full) | 18 nM | 200 | 0.2 µM·h | – | –
C=CCNC(=O)C(=O)C(CCC1CC1)NC(=O)[C@@H]1CC2(CN1C(=O)[C@@H](NC(=O)N[C@@H](CN1C(=O)CC(C)(C)CC1=O)C(C)(C)C)C(C)(C)C)SCCS2 (stereo not given in full) | 13 nM | 1700 | – | – | –
CC(C)(C)NC(=O)N[C@H](C(=O)N1C[C@H]2[C@@H]([C@H]1C(=O)NC(CC1CCC1)C(=O)C(N)=O)C2(C)C)C(C)(C)C (stereo not given in full) [BOCEPREVIR] | 14 nM | – | 0.14 µM·h | 350 nM | –
C=CCNC(=O)C(=O)C(CCC)NC(=O)[C@@H]1CC2(CN1C(=O)[C@@H](NC(=O)N[C@@H](CN1C(=O)CC(C)(C)CC1=O)C(C)(C)C)C1(C)CCCCC1)SCCS2 (stereo not given in full) | 6 nM | 240 | 0.04 µM·h | – | –
C=CCNC(=O)C(=O)C(CCC)NC(=O)[C@@H]1CC2(CN1C(=O)[C@@H](NC(=O)NC1(CS(=O)(=O)C(C)(C)C)CCCCC1)C(C)(C)C)SCCCS2 (stereo not given in full) | 7 nM | 128 | 2.56 µM·h | – | –
CC(C)(C)NC(=O)N[C@H](C(=O)N1CC2(C[C@H]1C(=O)NC(CC1CCC1)C(=O)C(N)=O)SCCS2)C1CCCCC1 (stereo not given in full) | 400 nM | – | – | – | –
C=CCNC(=O)C(=O)C(CCC)NC(=O)[C@@H]1CC2(CN1C(=O)[C@@H](NC(=O)NC1(CS(=O)(=O)C(C)(C)C)CCCCC1)C(C)(C)C)SCCS2 (stereo not given in full) | 11 nM | 50 | 0.57 µM·h | – | –
CC(C)(C)NC(=O)N[C@H](C(=O)N1CC2(C[C@H]1C(=O)NC(CC1CC1)C(=O)C(N)=O)SCCS2)C(C)(C)C (stereo not given in full) | 300 nM | – | – | – | –
C=CCNC(=O)C(=O)C(CCC)NC(=O)[C@@H]1CC2(CN1C(=O)[C@@H](NC(=O)NC1(CS(=O)(=O)C(C)(C)C)CCCCC1)C1(C)CCCCC1)SCCS2 (stereo not given in full) | 19 nM | 10 | 1.34 µM·h | – | –
C=CCNC(=O)C(=O)C(CC1CC1)NC(=O)[C@@H]1CC2(CN1C(=O)[C@@H](NC(=O)NC1(CS(=O)(=O)C(C)(C)C)CCCCC1)C(C)(C)C)SCCCS2 (stereo not given in full) | 18 nM | 130 | 1.69 µM·h | – | –
C=CCNC(=O)C(=O)C(CC1CC1)NC(=O)[C@@H]1CC2(CN1C(=O)[C@@H](NC(=O)N[C@@H](C(=O)OC1CC1)C(C)C)C1CCCCC1)SCCS2 (stereo not given in full) | 72 nM | 15 | – | – | –
CC(C)(C)NC(=O)N[C@H](C(=O)N1CC2(C[C@H]1C(=O)NC(CC1CC1)C(=O)C(N)=O)SCCS2)C1CCCCC1 (stereo not given in full) | 200 nM | – | – | – | –
C=CCNC(=O)C(=O)C(CC1CC1)NC(=O)[C@@H]1CC2(CN1C(=O)[C@@H](NC(=O)NC(C)(C)C)C(C)(C)C)SCCS2 (stereo not given in full) | 700 nM | inactive | – | – | Not Active
C=CCNC(=O)C(=O)C(CC1CC1)NC(=O)[C@@H]1CC2(CN1C(=O)[C@@H](NC(=O)NC1(CS(=O)(=O)C(C)(C)C)CCCCC1)C(C)(C)C)SCCS2 (stereo not given in full) | 33 nM | 40 | 0.77 µM·h | – | –
C=CCNC(=O)C(=O)C(CCCC)NC(=O)[C@@H]1CC2(CN1C(=O)[C@@H](NC(=O)N[C@@H](CN1C(=O)CC(C)(C)CC1=O)C(C)(C)C)C(C)(C)C)SCCS2 (stereo not given in full) | 13 nM | 1500 | 0.2 µM·h | – | –
